For orientation: solubility means the concentration that dissolves in the medium under given conditions. Usually IC50 stands for the midpoint of a concentration-inhibition curve. In general, Solubility refers to the dissolved amount per volume that the medium holds. Higher therefore signals a readily soluble substance.

SMILES strings stand for the structures. Converted amounts (≈) assume the structure as drawn.

Experimental findings from patent US11834414B2, “1-methyl-4-[(4-phenylphenyl)sulfonylmethyl]cyclohexyanol and 1-methyl-4-[[4-(2-pyridyl)phenyl]sulfonylmethyl]cyclohexanol compounds and their therapeutic use” (Modern Biosciences Limited, priority 2018, dated 2023) are described below.

Data set [1] in a line: Aqueous solubility in FaSSIF. It is filed as physicochemical. The settings on record: pH 6.5, three replicates; for solubility at 16 h: kinetic from dmso stock. As to the method: Aqueous solubility was measured by equilibration of compounds with fasted state simulated intestinal fluid (FaSSIF) and quantified spectrophotometrically.
Preparation of blank FaSSIF: 0.21 g of sodium hydroxide (NaOH) pellets, 1.97 g of dihydrogen sodium phosphate (NaH2PO4.2H2O) and 3.09 g of sodium chloride (NaCl) were dissolved in 400 mL of deionised water. The pH was adjusted to 6.5 using 1 M hydrochloric acid and further deionised water added to a final volume of 500 mL.
Preparation of FaSSIF: 0.056 g of SIF Powder (containing sodium taurocholate and lecithin) (Phares AG) was dissolved in 25 mL of blank FaSSIF and stirred until the powder was completely dissolved. The solution was allowed to stand for 2 hours during which it became opalescent; it was used within 24 hours. The final solution composition was characterised as follows: • Sodium taurocholate: 3 mM • Lecithin: 0.75 mM • Osmolarity: 270±10 mOsmol • pH: 6.5
The optical density was measured at the end of the incubation period for test compounds and a reference used to determine solubility. In brief, two samples were prepared for each determination: a reference sample consisting of a stock solution of test compound in DMSO diluted in system solution (a phosphate free, low absorption buffer) and propanol; and a test sample (prepared in triplicate) consisting of 0.5 mL FaSSIF spiked with test compound at 0.2 mM. Each sample was incubated at room temperature for 16 hours with constant shaking at 250 rpm. At the end of the incubation period, 0.3 mL of each sample was filtered through a pION filter plate (PION, Woburn MA), diluted 1:1 with propanol and scanned using UV spectrophotometry at λmax ([…]) using a Spectra Max Plus—Version 2.1000 (Molecular Devices, Sunnyvale, CA), with pSOL Explorer solubility determination software (pION, Woburn, MA).
FaSSIF solubility was calculated using the following formula:
[formula] • wherein: • “OD” is the optical density; • “Cr” is the concentration of the reference (33.4 μM); and • “molecular weight” is for the test compound (e.g., 381.44 for ABD735).

Data set [2] concerns collagen-induced arthritis in DBA/1j mice. In words: Mouse Collagen-Induced Arthritis. It is filed as in vivo. The settings on record: 10 mg/kg/day, once daily for 14 days, arthritic index vs control. How it is done:
Seven- to eight-week-old male DBA/1j mice were used for all procedures. Animals were housed in groups of 10, and were maintained at 21° C.±2° C. on a 12-hour light/dark cycle with food and water ad libitum. Complete Freund's adjuvant (CFA) was prepared by emulsifying bovine type II collagen at 4 mg/mL with a 4 mg/mL suspension of Mycobacterium tuberculosis H37Ra in Incomplete Freund's Adjuvant (IFA) (0.85 mL paraffin oil and 0.15 mL mannide monooleate) in a 1:1 (v/v) ratio. All mice were immunised subcutaneously with 200 μg of bovine type II collagen in CFA. 21 days later, all mice were immunised subcutaneously with 100 μg of bovine type II collagen in IFA. The mice started to develop signs and symptoms of arthritis following the ‘booster’ immunisation.
For macroscopic assessment of arthritis, the following signs were monitored in each paw of each mouse three times per week and summed to generate the Arthritic Index (AI) (the maximum AI for one animal is 16): • 0=no visible effects of arthritis. • 1=oedema and/or erythema of 1 digit. • 2=oedema and/or erythema of 2 digits. • 3=oedema and/or erythema of more than 2 digits. • 4=severe arthritis of entire paw and digits.
Animals were sorted into treatment groups with a mean arthritic index of 2.5 and then dosed once daily for 14 days with compound: by oral gavage for test compounds, or by subcutaneous injection at a dose of 10 mg/kg for the positive control, etanercept. After completion of the experiment, the mice were sacrificed.
The data were analysed by generating an average of the arthritic index across each treatment group. The mean arthritic index was then compared to the arthritic index of control (untreated) animals using the following formula to generate a percentage inhibition of disease.

The target in data set [3] is CYP2C9 (Homo sapiens (Human), UniProt P11712). The data set is described as follows: Human Cytochrome P450 Inhibition Assay (Bactosomes). The note with it: recombinant Bactosomes, 10 minutes, 37° C. It is filed as in vitro ADME.
Sequence of CYP2C9 (P11712 whole entry): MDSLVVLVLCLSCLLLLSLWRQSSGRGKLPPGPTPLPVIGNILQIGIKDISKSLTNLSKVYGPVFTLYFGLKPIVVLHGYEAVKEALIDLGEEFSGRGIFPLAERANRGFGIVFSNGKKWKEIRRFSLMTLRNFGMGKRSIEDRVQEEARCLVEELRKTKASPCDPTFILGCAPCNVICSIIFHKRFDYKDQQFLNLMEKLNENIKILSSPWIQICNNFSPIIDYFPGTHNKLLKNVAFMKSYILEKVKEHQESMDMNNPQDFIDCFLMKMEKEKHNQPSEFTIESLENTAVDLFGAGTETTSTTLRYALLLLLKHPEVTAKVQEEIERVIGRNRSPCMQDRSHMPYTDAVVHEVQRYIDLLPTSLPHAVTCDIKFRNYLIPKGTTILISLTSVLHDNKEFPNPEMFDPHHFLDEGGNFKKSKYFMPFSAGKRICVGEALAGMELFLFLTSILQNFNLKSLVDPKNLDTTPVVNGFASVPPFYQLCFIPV
A short description of data set [4]: Human hepatocyte stability. The note with it: human, pooled human hepatocytes, human hepatocytes, 1 μM, 60 minute incubation; for hepatocyte CLint at 1 μM: read-out: Human Clint (uL/min/million cells); for half-life at 1 μM: read-out: Human t1/2. It is filed as in vitro ADME. The essentials: (§1)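 Compounds (1 μM final, 0.1% DMSO, 0.9% acetonitrile) were incubated in duplicate with pooled rat or human hepatocytes at 37° C, sampled at 0–60 min and quenched with methanol. Remaining parent was measured by LC-MS/MS. Elimination rate constant came from the ln(concentration)–time slope, giving t1/2 and CLint scaled to hepatocyte concentration.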

Data set [5] deals with human hepatocytes. The data set is described as follows: Human hepatocyte stability. The note with it: hepatocyte stability, compared to the reference compounds. It is filed as in vitro ADME. The essentials: as §1
Data set [6] is described as follows: Rat hepatocyte stability. It is filed as in vitro ADME. The note with it: rat, pooled rat hepatocytes, 60 minute incubation; for hepatocyte CLint at 1 μM: read-out: Rat Clint (μL/min/million cells); for half-life at 1 μM: read-out: Rat t1/2. The essentials:
as §1

Data set [7] deals with CYP3A4 (Homo sapiens (Human), UniProt P08684). In words: Human Cytochrome P450 Inhibition Assay (Bactosomes). It is filed as in vitro ADME. The settings on record: recombinant Bactosomes, 10 minutes, 37° C.
Sequence of CYP3A4 (P08684 whole entry): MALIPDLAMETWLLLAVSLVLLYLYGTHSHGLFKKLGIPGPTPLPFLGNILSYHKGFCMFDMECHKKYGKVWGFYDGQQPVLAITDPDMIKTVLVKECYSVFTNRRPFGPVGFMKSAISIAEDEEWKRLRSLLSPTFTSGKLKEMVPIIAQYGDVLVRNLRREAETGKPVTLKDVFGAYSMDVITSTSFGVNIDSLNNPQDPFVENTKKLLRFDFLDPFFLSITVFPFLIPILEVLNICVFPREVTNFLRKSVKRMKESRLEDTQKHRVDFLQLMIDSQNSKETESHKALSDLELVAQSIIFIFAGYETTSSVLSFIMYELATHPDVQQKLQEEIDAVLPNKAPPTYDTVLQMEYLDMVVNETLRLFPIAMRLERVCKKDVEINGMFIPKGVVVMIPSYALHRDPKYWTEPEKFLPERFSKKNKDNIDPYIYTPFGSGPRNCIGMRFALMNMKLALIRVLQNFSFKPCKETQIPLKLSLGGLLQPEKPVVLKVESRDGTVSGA

Regarding `C[C@]1(O)CC[C@@H](CS(=O)(=O)c2ccc(-c3ncc(F)cc3F)c(F)c2)CC1` [CHMSA-03-A, cis-4-(((4-(3,5-difluoropyridin-2-yl)-3-fluorophenyl)sulfonyl)methyl)-1-methylcyclohexan-1-ol], the solubility at 16 h in data set [1] was determined as 0.07 mg/mL (≈ 175 µM). In data set [2], the “% inhibition of disease” value came out at 62%. Also, the values for the IC50 in data set [3] and in data set [7] were 14.7 µM and more than 50 µM, respectively. The hepatocyte CLint at 1 μM in data set [4] was less than 3 µL/min/1e6 cells; in data set [6], 14.4 µL/min/1e6 cells. For the same molecule, the values for the half-life at 1 μM in data set [4] and in data set [6] were more than 7.67 h and 1.52 h, respectively. Moreover, in data set [5], the “metabolic stability (in words)” value was “exceptionally good stability”.
As to `C[C@]1(O)CC[C@@H](CS(=O)(=O)c2ccc(-c3ccc(C#N)cc3F)cc2C(F)(F)F)CC1` [CHMSA-02-A, 2-fluoro-4′-(((cis-4-hydroxy-4-methylcyclohexyl)methyl)sulfonyl)-3′-(trifluoromethyl)-[1,1′-biphenyl]-4-carbonitrile], the solubility at 16 h in data set [1] came to 0.02 mg/mL (≈ 43.9 µM). The 50% inhibitory concentration (IC50) in data set [3] and in data set [7] was more than 50 µM in each case. Further, the hepatocyte CLint at 1 μM is less than 3.3 µL/min/1e6 cells in data set [4] and 102 µL/min/1e6 cells in data set [6]. The results for the half-life at 1 μM in data set [4] and in data set [6] were more than 6.87 h and 0.217 h, respectively. Besides, the “metabolic stability (in words)” value in data set [5] was “exceptionally good stability”.
In data set [1], `C[C@]1(O)CC[C@@H](CS(=O)(=O)c2ccc(-c3ccc(C#N)cc3F)cc2)CC1` [CHMSA-01-A, 2-fluoro-4′-(((cis-4-hydroxy-4-methylcyclohexyl)methyl)sulfonyl)-[1,1′-biphenyl]-4-carbonitrile] yielded a solubility at 16 h of 0.01 mg/mL (≈ 25.8 µM). The “% inhibition of disease” value in data set [2] came to 63%. Besides, the IC50 is 39.4 µM in data set [3] and more than 50 µM in data set [7]. Moreover, the values for the hepatocyte CLint at 1 μM in data set [4] and in data set [6] were 3.7 µL/min/1e6 cells and 12.4 µL/min/1e6 cells, respectively. For the same molecule, the half-life at 1 μM in data set [4] came to 5.91 h; in data set [6], 1.77 h.
In the case of `C[C@]1(O)CC[C@H](NS(=O)(=O)c2ccc(-c3ccc(Cl)cc3C#N)cc2)CC1` [HMC-C-01-A, reference compound], the “Solubility” value in data set [1] (16 hours) is on record as 0.06 mg/mL (≈ 148 µM). For the same molecule, in data set [2], the “% inhibition of disease” value is listed as 40%. Also, the IC50 in data set [3] is 21 µM; in data set [7], more than 25 µM. Also, the hepatocyte CLint at 1 μM in data set [4] stood at 7.6 µL/min/1e6 cells; in data set [6], 188 µL/min/1e6 cells. Also, the half-life at 1 μM was 2.57 h in data set [4] and 0.117 h in data set [6].
